In one assay the target is HIS-TGFβR2 WT (Homo sapiens, UniProt P37173). In words: HTRF probe-displacement assay, HIS-TGFβR2 WT. In kind it is binding.
The target of another assay is T1, HIS-TGFβR1 T204D (Homo sapiens, UniProt P36897, T204D).
T1 sequence (P36897 34-503 T204D): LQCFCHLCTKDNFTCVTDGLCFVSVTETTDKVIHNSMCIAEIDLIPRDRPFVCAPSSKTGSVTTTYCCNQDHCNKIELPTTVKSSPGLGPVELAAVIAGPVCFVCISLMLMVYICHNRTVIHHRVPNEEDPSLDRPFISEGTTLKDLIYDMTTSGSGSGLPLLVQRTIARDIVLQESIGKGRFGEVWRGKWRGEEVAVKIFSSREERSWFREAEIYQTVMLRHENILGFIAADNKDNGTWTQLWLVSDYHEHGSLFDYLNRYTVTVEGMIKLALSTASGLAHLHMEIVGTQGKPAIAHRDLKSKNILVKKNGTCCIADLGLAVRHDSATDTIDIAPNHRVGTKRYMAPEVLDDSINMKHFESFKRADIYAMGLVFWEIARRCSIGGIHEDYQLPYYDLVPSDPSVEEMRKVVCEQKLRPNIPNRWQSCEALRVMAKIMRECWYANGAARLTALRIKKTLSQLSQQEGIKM
In words: HTRF probe-displacement assay, HIS-TGFβR1 T204D. In kind it is binding. Conditions: read-out: TGFβR1 (μM) IC50. Background: In TR-FRET formats the signal depends on donor and acceptor labels being close together.

HIS-TGFβR2 WT, sequence (P37173 23-567): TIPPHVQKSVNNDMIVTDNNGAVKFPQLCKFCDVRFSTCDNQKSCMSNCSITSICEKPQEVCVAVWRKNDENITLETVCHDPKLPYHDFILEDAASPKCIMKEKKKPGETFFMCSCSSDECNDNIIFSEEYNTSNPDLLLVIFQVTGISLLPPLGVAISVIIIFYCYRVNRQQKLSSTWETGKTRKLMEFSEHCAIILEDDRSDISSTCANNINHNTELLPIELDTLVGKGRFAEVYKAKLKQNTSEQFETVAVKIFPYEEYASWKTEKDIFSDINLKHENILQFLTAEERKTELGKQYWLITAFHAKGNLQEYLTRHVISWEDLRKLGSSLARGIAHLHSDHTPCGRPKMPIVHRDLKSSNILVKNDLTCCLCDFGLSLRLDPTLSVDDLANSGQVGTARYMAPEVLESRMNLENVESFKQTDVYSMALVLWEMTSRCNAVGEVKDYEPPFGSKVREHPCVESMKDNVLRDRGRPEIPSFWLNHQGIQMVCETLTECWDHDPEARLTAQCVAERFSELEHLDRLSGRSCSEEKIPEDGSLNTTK

For `COc1nc(-c2c(-c3ccnc(NC(C)=O)c3)[nH]c3cccnc23)cs1` [Example 201, N-(4-(3-(2-Methoxythiazol-4-yl)-1H-pyrrolo[3,2-b]pyridin-2-yl)pyridin-2-yl)acetamide], the concentration for half-maximal inhibition (IC50) (commonly the concentration that gives 50% inhibition) at HIS-TGFβR2 WT was determined as 1.53 µM; on HIS-TGFβR1 T204D, 0.0275 µM.
Regarding `COc1ccc(-c2c(-c3ccnc(NC(C)=O)c3)[nH]c3cc(N4CCC(OC)CC4)cnc23)nc1` [Example 158, N-(4-(6-(4-Methoxypiperidin-1-yl)-3-(5-methoxypyridin-2-yl)-1H-pyrrolo[3,2-b]pyridin-2-yl)pyridin-2-yl)acetamide], the IC50 on HIS-TGFβR2 WT is above 15 µM; at HIS-TGFβR1 T204D it was 0.0163 µM.
Taken in the same sequence, the figures for `COc1ccc(-c2c(-c3ccnc(NC(C)=O)c3)[nH]c3cc(N4CCC[C@@H]4CO)cnc23)nc1` [Example 163, (R)-N-(4-(6-(2-(Hydroxymethyl)pyrrolidin-l-yl)-3-(5-methoxypyridin-2-yl)-1H-pyrrolo[3,2-b]pyridin-2-yl)pyridin-2-yl)acetamide] were above 15 µM and 0.0304 µM.
As for `CC(=O)Nc1cc(-c2[nH]c3cccnc3c2-c2ccc(C(F)F)cn2)ccn1` [Example 108, N-(4-(3-(5-(Difluoromethyl)pyridin-2-yl)-1H-pyrrolo[3,2-b]pyridin-2-yl)pyridin-2-yl)acetamide], the half-inhibitory concentration (IC50) at HIS-TGFβR2 WT is above 15 µM; at HIS-TGFβR1 T204D, 0.145 µM.
As for `COc1ccc(-c2c(-c3ccnc(NC(C)=O)c3)[nH]c3cc(Cl)cnc23)cn1` [Example 43, N-{4-[6-Chloro-3-(6-methoxypyridin-3-yl)-1H-pyrrolo[3,2-b]pyridin-2-yl]pyridin-2-yl}acetamide], the half-maximal inhibitory concentration (IC50) on HIS-TGFβR2 WT was 0.068 µM; on HIS-TGFβR1 T204D, 0.002 µM.
For the compound `COc1ccc(-c2c(-c3ccnc(NC(C)=O)c3)[nH]c3c(C)ccnc23)cn1` [Example 215, N-(4-(3-(6-Methoxypyridin-3-yl)-7-methyl-1H-pyrrolo[3,2-b]pyridin-2-yl)pyridin-2-yl)acetamide], the IC50 was 0.999 µM on HIS-TGFβR2 WT and 0.0885 µM on HIS-TGFβR1 T204D.
Turning to `CCC(OC(N)=O)c1ccnc2c(-c3ccc(OC)nc3)c(-c3ccnc(NC(C)=O)c3)[nH]c12` (centres unmarked) [Example 302, 1-(2-(2-Acetamidopyridin-4-yl)-3-(6-methoxypyridin-3-yl)-1H-pyrrolo[3,2-b]pyridin-7-yl)propyl carbamate], the IC50 on HIS-TGFβR2 WT amounted to 0.723 µM; at HIS-TGFβR1 T204D, 0.001 µM.
Consider `CC(=O)Nc1cc(-c2[nH]c3cc(Cl)cnc3c2-c2ncccc2C)ccn1` [Example 259, N-(4-(6-Chloro-3-(3-methylpyridin-2-yl)-1H-pyrrolo[3,2-b]pyridin-2-yl)pyridin-2-yl)acetamide], for which the 50% inhibitory concentration (IC50) on HIS-TGFβR2 WT was above 15 µM; on HIS-TGFβR1 T204D, 0.535 µM.
Taken in the same sequence, the figures for `COc1cnc2c(-c3cccc(Cl)n3)c(-c3ccnc(NC(C)=O)c3)[nH]c2c1` [Example 48, N-{4-[3-(6-Chloropyridin-2-yl)-6-methoxy-1H-pyrrolo[3,2-b]pyridin-2-yl]pyridin-2-yl}acetamide] were 0.076 µM and 0.001 µM.
Taken in the same sequence, the figures for `CC(=O)Nc1cc(-c2[nH]c3c(C4CCN(C)CC4)ccnc3c2-c2cccc(C(F)F)n2)ccn1` [Example 137, N-(4-{3-[6-(Difluoromethyl)pyridin-2-yl]-7-(1-methylpiperidin-4-yl)-1H-pyrrolo[3,2-b]pyridin-2-yl}pyridin-2-yl)acetamide] were above 15 µM and 0.058 µM.
For the compound `COc1ccc(-c2c(-c3ccnc(NC(C)=O)c3)[nH]c3cc(N4CCC(NC(C)=O)CC4)cnc23)nc1` [Example 159, N-(4-(6-(4-Acetamidopiperidin-1-yl)-3-(5-methoxypyridin-2-yl)-1H-pyrrolo[3,2-b]pyridin-2-yl)pyridin-2-yl)acetamide], the 50% inhibitory concentration (IC50) was above 15 µM at HIS-TGFβR2 WT and 0.0311 µM on HIS-TGFβR1 T204D.
On to `CC(=O)Nc1cc(-c2[nH]c3c(C(O)C(C)C)ccnc3c2-c2cccc(C(F)F)n2)ccn1` (centres unmarked) [Example 144, N-(4-{3-[6-(Difluoromethyl)pyridin-2-yl]-7-(1-hydroxy-2-methylpropyl)-1H-pyrrolo[3,2-b]pyridin-2-yl}pyridin-2-yl)acetamide], for which the IC50 on HIS-TGFβR2 WT is 0.361 µM; at HIS-TGFβR1 T204D it was 0.001 µM.
Turning to `CC(=O)Nc1cc(-c2[nH]c3cc(F)cnc3c2-c2cccc(Cl)n2)ccn1` [Example 38, N-{4-[3-(6-Chloropyridin-2-yl)-6-fluoro-1H-pyrrolo[3,2-b]pyridin-2-yl]pyridin-2-yl}acetamide], the concentration for half-maximal inhibition (IC50) on HIS-TGFβR2 WT came to 0.11 µM; at HIS-TGFβR1 T204D, 0.002 µM.
Regarding `COc1ccc(-c2c(-c3ccnc(NC(C)=O)c3)[nH]c3cc(C#N)cnc23)nc1` [Example 92, N-{4-[6-Cyano-3-(5-methoxypyridin-2-yl)-1H-pyrrolo[3,2-b]pyridin-2-yl]pyridin-2-yl}acetamide], the IC50 at HIS-TGFβR2 WT was above 15 µM; at HIS-TGFβR1 T204D, 0.002 µM.
Turning to `O=C(CN1CCOCC1)Nc1cc(-c2[nH]c3cc(Cl)cnc3c2-c2ccc(F)cn2)ccn1` [Example 74, N-{4-[6-Chloro-3-(5-fluoropyridin-2-yl)-1H-pyrrolo[3,2-b]pyridin-2-yl]pyridin-2-yl}-2-(morpholin-4-yl)acetamide], the concentration for half-maximal inhibition (IC50) came to 2.6 µM on HIS-TGFβR2 WT and 0.001 µM at HIS-TGFβR1 T204D.
Turning to `[2H]C([2H])([2H])Oc1ccc(-c2c(-c3ccnc(NC(C)=O)c3)[nH]c3cc(OC)cnc23)nc1` [Example 112, N-(4-(6-Methoxy-3-(5-(methoxy-d3)pyridin-2-yl)-1H-pyrrolo[3,2-b]pyridin-2-yl)pyridin-2-yl)acetamide], the values for the IC50 at HIS-TGFβR2 WT and on HIS-TGFβR1 T204D were 8.75 µM and 0.001 µM, respectively.
With `CC(=O)Nc1cc(-c2[nH]c3c(CO)ccnc3c2-c2ccc(C)nc2)ccn1` [Example 280, N-(4-(7-(Hydroxymethyl)-3-(6-methylpyridin-3-yl)-1H-pyrrolo[3,2-b]pyridin-2-yl)pyridin-2-yl)acetamide], the 50% inhibitory concentration (IC50) on HIS-TGFβR2 WT is 4.12 µM; at HIS-TGFβR1 T204D, 0.023 µM.
For the compound `COc1ccc(-c2c(-c3ccnc(NC(C)=O)c3)[nH]c3cc(C)cnc23)nc1` [Example 184, N-(4-(3-(5-Methoxypyridin-2-yl)-6-methyl-1H-pyrrolo[3,2-b]pyridin-2-yl)pyridin-2-yl)acetamide], the concentration for half-maximal inhibition (IC50) at HIS-TGFβR2 WT was above 15 µM; on HIS-TGFβR1 T204D it was 6.52 µM.
On to `COc1cnc2c(-c3cccc(C(F)F)n3)c(-c3ccnc(NC(C)=O)c3)[nH]c2c1` [Example 282, N-(4-(3-(6-(Difluoromethyl)pyridin-2-yl)-6-methoxy-1H-pyrrolo[3,2-b]pyridin-2-yl)pyridin-2-yl)acetamide], for which the half-maximal inhibitory concentration (IC50) at HIS-TGFβR2 WT stood at 1.85 µM; on HIS-TGFβR1 T204D it was 0.001 µM.
As for `CCC(O)c1ccnc2c(-c3ccc(OC)nc3)c(-c3ccnc(NC(C)=O)c3)[nH]c12` (centres unmarked) [Example 301, N-(4-(7-(1-Hydroxypropyl)-3-(6-methoxypyridin-3-yl)-1H-pyrrolo[3,2-b]pyridin-2-yl)pyridin-2-yl)acetamide], the IC50 at HIS-TGFβR2 WT was 0.031 µM; at HIS-TGFβR1 T204D, 0.001 µM.
On to `CC(=O)Nc1cc(-c2[nH]c3cc(Cl)cnc3c2-c2cccc(Cl)n2)ccn1` [Example 41, N-{4-[3-(6-Chloropyridin-2-yl)-6-chloro-1H-pyrrolo[3,2-b]pyridin-2-yl]pyridin-2-yl}acetamide], for which the concentration for half-maximal inhibition (IC50) came out at 0.13 µM at HIS-TGFβR2 WT and 0.002 µM on HIS-TGFβR1 T204D.
Consider `COc1cnc2c(-c3cccc(C)n3)c(-c3ccnc(NC(=O)CN4CCN(CCO)CC4)c3)[nH]c2c1` [Example 122, 2-[4-(2-Hydroxyethyl)piperazin-1-yl]-N-{4-[6-methoxy-3-(6-methy 1pyridin-2-yl)-1H-pyrrolo[3,2-b]pyridin-2-yl]pyridin-2-yl}acetamide], for which the values for the IC50 on HIS-TGFβR2 WT and on HIS-TGFβR1 T204D were above 15 µM and 0.001 µM, respectively.
`COc1ccc(-c2c(-c3ccnc(NC(C)=O)c3)[nH]c3cc(C)cnc23)cn1` [Example 173, N-(4-(3-(6-Methoxypyridin-3-yl)-6-methyl-1H-pyrrolo[3,2-b]pyridin-2-yl)pyridin-2-yl)acetamide]: the concentration for half-maximal inhibition (IC50) was found to be 1.35 µM on HIS-TGFβR2 WT and 0.15 µM on HIS-TGFβR1 T204D.
Turning to `CC(=O)Nc1cc(-c2[nH]c3c(C(O)C(F)F)ccnc3c2-c2cccc(C(F)F)n2)ccn1` (centres unmarked) [Example 148, N-{4-[7-(2,2-Difluoro-1-hydroxyethyl)-3-[6-(difluoromethyl)pyridin-2-yl]-1H-pyrrolo[3,2-b]pyridin-2-yl]pyridin-2-yl}acetamide], the IC50 came to 0.484 µM at HIS-TGFβR2 WT and 0.001 µM on HIS-TGFβR1 T204D.
For the compound `COc1cnc2c(-c3csc(C)n3)c(-c3ccnc(NC(C)=O)c3)[nH]c2c1` [Example 210, N-(4-(6-Methoxy-3-(2-methylthiazol-4-yl)-1H-pyrrolo[3,2-b]pyridin-2-yl)pyridin-2-yl)acetamide], the results for the 50% inhibitory concentration (IC50) at HIS-TGFβR2 WT and at HIS-TGFβR1 T204D were 0.815 µM and 0.0025 µM, respectively.
Turning to `COc1ccc(-c2c(-c3ccnc(NC(C)=O)c3)[nH]c3cccnc23)nc1Cl` [Example 192, N-(4-(3-(6-Chloro-5-methoxypyridin-2-yl)-1H-pyrrolo[3,2-b]pyridin-2-yl)pyridin-2-yl)acetamide], the results for the IC50 on HIS-TGFβR2 WT and on HIS-TGFβR1 T204D were above 15 µM and 0.11 µM, respectively.
Turning to `COC(=O)c1ccnc2c(-c3ccc(F)cn3)c(-c3ccnc(NC(C)=O)c3)[nH]c12` [Example 71, Methyl 2-(2-acetamidopyridin-4-yl)-3-(5-fluoropyridin-2-yl)-1H-pyrrolo[3,2-b]pyridine-7-carboxylate], the half-inhibitory concentration (IC50) at HIS-TGFβR2 WT stood at 4.38 µM; at HIS-TGFβR1 T204D, 0.27 µM.
`COc1ccnc2c(-c3nc(C)cs3)c(-c3ccnc(NC(C)=O)c3)[nH]c12` [Example 234, N-(4-(7-Methoxy-3-(4-methylthiazol-2-yl)-1H-pyrrolo[3,2-b]pyridin-2-yl)pyridin-2-yl)acetamide]: the 50% inhibitory concentration (IC50) came to 0.572 µM on HIS-TGFβR2 WT and 0.0016 µM on HIS-TGFβR1 T204D.

The values above are taken from patent US9708316B2 (BRISTOL-MYERS SQUIBB COMPANY, priority 2014, dated 2017).
